Drawing on patent US6288091A, “Antiherpes virus compounds and methods for their preparation and use” (Boehringer Ingelheim Ltd., priority 1999, dated 2001), this text covers EC50 and IC50 for 13 compounds.

One experiment deals with HSV-1 strain F or KOS. As to the kind of experiment: Inhibition of herpes simplex virus (HSV-1) replication in cell culture (BHK-21 cells, glycoprotein C ELISA). It is filed as cell-based. In a few lines:
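Replication readout: ELISA for HSV-1 late glycoprotein C (mAb C11, peroxidase-OPD, 450 nm) on glutaraldehyde-fixed cells. Monolayers (~50,000 cells/well) were infected with strain F or KOS (MOI 0.05 PFU/cell), then incubated 24 h at 37° with compound in 2% FBS α-MEM. EC50 derived from % inhibition.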
Background: ELISA stands for enzyme-linked immunosorbent assay.

Experiment [1] relates to HCMV (strain AD169). As to the kind of experiment: Inhibition of HCMV replication, ELISA assay (Hs-68 cells). The class given is cell-based, Human Cytomegalovirus (HCMV). The note with it: read-out: ELISA CMV EC50. The method, then:
(§1) C) Inhibition of Human Cytomegalovirus (HCMV) Replication
(§2) The effect of compounds on the replication of HCMV has been measured by using an ELISA-based assay (ELISA) and a plaque reduction assay (PRA).
Hs-68 cells (ATCC # CRL 1635) were seeded in 96 well microtiter plates at 10,000 cells/well in 100 μL of DMEM medium (Gibco Canada Inc.) supplemented with 10% fetal bovine serum (FBS, Gibco Canada Inc.). The plates were incubated for 3 days at 37° to allow the cells to reach 80-90% confluency prior to the assay.
The medium was removed from wells by aspiration. The cells then were infected at a multiplicity of infection (MOI) of 0.01 PFU/cell with 50 μL of HCMV (strain AD169, ATCC VR-538) in DMEM medium supplemented with 5% heat inactivated FBS (assay medium). The virus was allowed to adsorb to cells for 2 h at 37°. Following viral adsorption, the medium was removed from the wells by aspiration. The cells were washed twice with 200 μL of assay medium to remove unabsorbed virus. The cells were then incubated with or without 100 μL of appropriate concentrations of test reagent in assay medium. After 8 days of incubation at 37°, the extent of viral replication was determined by an ELISA assay which detects the late structural protein p28 of HCMV.
Eight days after infection, the medium was aspirated from the wells. Non-specific binding sites were blocked by adding 200 μL of phosphate buffered saline containing 1% (w/v) bovine serum albumin (blocking buffer) to each well and incubating the plates for 30 min at room temperature. After removal of the blocking buffer by aspiration, the cells were fixed with 100 μL of cold ethanol-acetone solution (95:5) per well. The plates were placed at -20° for 30 min. The plates were washed 4 times with phosphate buffered saline containing 0.05% (v/v) polyoxyethylene sorbitan monolaurate (Tween®). Thereafter, 100 μL of mAb UL99 (Advanced Biotechnologies Inc., #13-130-100) recognizing HCMV protein p28 was added to each wells and plates were incubated for 2 h at room temperature. The plates were washed four times with 200 μL of the above-noted phosphate buffered saline/Tween-20® solution. The cells were then incubated with 100 μL of sheep anti-mouse IgGγ horseradish peroxidase conjugated for 2 h at room temperature. The plates were then washed four times with 200 μL of above-noted phosphate buffered saline/Tween-20® solution. Thereafter, 100 μL of ortho phenylenediamine dihydrochloride (OPD, Gibco Canada Inc.) solution was added to each well and the plates were agitated on a microplate shaker for 30 min in the dark. Color development was monitored at 450 nm using a microplate spectrophotometer.
The SAS program was used to calculate the % inhibition of viral replication and to generate EC50 values.
The EC50 values obtained according to this assay method for certain thiazolylphenyl derivatives of this invention are listed in the following tables under the heading ELISA CMV.

Experiment [2] relates to HCMV (strain AD169). As to the kind of experiment: Inhibition of HCMV replication, plaque reduction assay (PRA, Hs-68 cells). The class given is cell-based, Human Cytomegalovirus (HCMV). To be noted: read-out: PRA CMV EC50. The method, then: as §1, §2
Hs-68 cells (ATCC # CRL 1635) were seeded in 12-well plates at 83,000 cells/well in 1 mL of DMEM medium (Gibco Canada Inc.) supplemented with 10% fetal bovine serum (FBS, Gibco Canada Inc.). The plates were incubated for 3 days at 37° to allow the cells to reach 80-90% confluency prior to the assay.
The medium was removed from the cells by aspiration. The cells were then infected with approximately 50 PFU of HCMV (strain AD169, ATCC VR-538) in DMEM medium supplemented with 5% inactivated FBS (assay medium). The virus was allowed to adsorb to cells for 2 h at 37°. Following viral adsorption, the medium was removed from the wells by aspiration. The cells were then incubated with or without 1 mL of appropriate concentrations of test reagent in assay medium. After 4 days of incubation at 37°, the medium was exchanged with fresh medium containing test compound and 4 days later the cells were fixed with 1% aqueous formaldehyde and stained with a 2% crystal violet solution in 20% ethanol in water. Microscopic plaques were counted using a stereomicroscope. Drug effects were calculated as a percent reduction in the number of plaques in the presence of each drug concentration compared to the number observed in the absence of drug. Ganciclovir was used as a positive control in all experiments.
The EC50 values obtained according to this assay for certain thiazolyl derivatives of this invention are listed in the following tables under the heading PRA CMV.

Another experiment deals with T1, HSV-1 helicase-primase (Human herpesvirus 1, UniProt P10189+P10236).
T1 construct: made in house; host or cells: Sf21 insect cells triply infected with recombinant baculoviruses (UL5, UL8, UL52)
As to the kind of experiment: HSV-1 DNA-dependent ATPase assay (inhibition of HSV-1 helicase-primase). The class given is biochemical. In a few lines:
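ATP hydrolysis was measured as inorganic phosphate (malachite green/molybdate, 650 nm) after 20 min at 34°. Reaction: 3 μg/mL purified Sf21-expressed UL5/UL8/UL52 helicase-primase, 25 μM single-stranded M13 DNA hybridized to 68-mer, 4 mM ATP, pH 7.5 HEPES buffer, 3.3% DMSO. Net absorbance change with and without inhibitor gave DNA-dependent ATPase activity.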

Where [3] appears, read: Human alphaherpesvirus 1, BHK-21, Group 1 Table 2 entries.
The mark [4] stands for this setting: Human betaherpesvirus 5, AD169, Hs68, Group 1 Table 2 entries.
The mark [5] stands for this setting: Human alphaherpesvirus 1, BHK-21, Group 1 Table 6 entries.
Setting [6] is: Human betaherpesvirus 5, AD169, Hs68, Group 1 Table 6 entries.
[7] abbreviates: Human alphaherpesvirus 1, BHK-21, Group 1 Table 5 entries.
[8] abbreviates: Human betaherpesvirus 5, AD169, Hs68, Group 1 Table 5 entries.
[9] abbreviates: Human alphaherpesvirus 1, BHK-21, Group 1 Table 1 entries.
Where [10] appears, read: Human betaherpesvirus 5, AD169, Hs68, Group 1 Table 1 entries.

T1 sequence (P10192 whole entry): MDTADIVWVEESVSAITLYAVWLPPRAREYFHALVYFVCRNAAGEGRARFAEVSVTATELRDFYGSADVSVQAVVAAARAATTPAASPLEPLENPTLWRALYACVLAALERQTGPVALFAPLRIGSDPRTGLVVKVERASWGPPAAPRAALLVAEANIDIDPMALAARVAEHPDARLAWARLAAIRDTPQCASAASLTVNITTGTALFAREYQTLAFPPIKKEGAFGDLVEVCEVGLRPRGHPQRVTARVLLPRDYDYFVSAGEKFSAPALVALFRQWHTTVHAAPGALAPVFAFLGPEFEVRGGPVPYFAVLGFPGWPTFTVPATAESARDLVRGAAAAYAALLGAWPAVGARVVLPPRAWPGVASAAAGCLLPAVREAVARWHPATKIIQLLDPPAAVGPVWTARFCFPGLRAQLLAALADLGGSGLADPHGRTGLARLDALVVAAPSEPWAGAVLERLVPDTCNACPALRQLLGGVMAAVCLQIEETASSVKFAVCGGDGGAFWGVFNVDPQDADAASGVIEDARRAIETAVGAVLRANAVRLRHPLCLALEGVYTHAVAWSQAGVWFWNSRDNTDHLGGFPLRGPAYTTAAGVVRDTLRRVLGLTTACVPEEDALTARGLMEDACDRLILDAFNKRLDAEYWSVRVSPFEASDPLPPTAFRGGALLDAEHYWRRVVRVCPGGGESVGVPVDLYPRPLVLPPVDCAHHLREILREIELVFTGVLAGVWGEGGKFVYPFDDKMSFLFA
T1 sequence (P10236 whole entry): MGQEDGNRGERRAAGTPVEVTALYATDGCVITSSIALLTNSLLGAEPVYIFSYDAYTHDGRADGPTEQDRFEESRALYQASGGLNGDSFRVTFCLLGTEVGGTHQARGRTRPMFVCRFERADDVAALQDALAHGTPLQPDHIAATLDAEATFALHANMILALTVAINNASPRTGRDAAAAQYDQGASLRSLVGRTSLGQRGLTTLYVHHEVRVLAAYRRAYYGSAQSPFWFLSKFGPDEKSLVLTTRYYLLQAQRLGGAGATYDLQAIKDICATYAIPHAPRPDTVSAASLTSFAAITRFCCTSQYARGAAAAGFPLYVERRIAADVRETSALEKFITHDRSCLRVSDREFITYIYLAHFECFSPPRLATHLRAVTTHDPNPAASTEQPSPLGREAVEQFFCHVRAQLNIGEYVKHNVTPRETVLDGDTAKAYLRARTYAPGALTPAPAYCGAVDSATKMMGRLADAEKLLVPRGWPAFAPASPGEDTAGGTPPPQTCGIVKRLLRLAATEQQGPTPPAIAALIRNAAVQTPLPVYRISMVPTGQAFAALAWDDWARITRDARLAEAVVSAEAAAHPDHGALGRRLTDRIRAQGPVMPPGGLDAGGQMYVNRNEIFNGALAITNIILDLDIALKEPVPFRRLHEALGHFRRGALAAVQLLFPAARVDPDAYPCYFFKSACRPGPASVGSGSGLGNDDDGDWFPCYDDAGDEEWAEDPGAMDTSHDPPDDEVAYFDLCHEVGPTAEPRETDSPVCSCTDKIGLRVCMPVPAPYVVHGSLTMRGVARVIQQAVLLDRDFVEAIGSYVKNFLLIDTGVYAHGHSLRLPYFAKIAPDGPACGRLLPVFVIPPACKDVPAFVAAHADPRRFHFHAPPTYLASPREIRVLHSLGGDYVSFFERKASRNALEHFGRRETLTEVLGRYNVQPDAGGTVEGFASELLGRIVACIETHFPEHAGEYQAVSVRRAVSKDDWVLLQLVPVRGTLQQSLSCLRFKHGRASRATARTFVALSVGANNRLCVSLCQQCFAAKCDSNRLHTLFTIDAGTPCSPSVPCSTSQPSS
T1 sequence (P10189 whole entry): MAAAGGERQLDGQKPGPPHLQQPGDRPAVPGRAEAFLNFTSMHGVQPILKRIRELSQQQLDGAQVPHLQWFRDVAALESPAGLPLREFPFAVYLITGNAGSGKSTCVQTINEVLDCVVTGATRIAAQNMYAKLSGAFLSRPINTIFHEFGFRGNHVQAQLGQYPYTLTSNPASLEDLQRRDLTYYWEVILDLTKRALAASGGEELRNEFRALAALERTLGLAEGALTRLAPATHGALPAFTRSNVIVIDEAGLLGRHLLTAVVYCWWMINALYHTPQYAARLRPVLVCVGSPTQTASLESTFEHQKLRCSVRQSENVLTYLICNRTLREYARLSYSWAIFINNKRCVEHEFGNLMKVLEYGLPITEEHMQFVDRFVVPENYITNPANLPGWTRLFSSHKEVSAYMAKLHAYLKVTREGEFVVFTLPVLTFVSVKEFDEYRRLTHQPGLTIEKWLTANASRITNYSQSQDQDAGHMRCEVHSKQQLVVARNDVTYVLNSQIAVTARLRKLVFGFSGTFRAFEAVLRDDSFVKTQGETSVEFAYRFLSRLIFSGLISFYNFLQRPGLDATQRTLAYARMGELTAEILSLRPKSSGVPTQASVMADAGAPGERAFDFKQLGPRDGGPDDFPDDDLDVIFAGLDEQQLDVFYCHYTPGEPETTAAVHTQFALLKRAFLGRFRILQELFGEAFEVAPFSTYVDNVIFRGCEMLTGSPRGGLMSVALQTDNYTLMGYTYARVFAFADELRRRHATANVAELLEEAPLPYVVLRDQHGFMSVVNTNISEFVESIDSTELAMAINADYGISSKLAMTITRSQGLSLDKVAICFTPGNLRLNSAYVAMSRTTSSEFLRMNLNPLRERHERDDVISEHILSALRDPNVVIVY

Take `Nc1nc(-c2ccc(NC(=O)CCNC3CCc4ccccc43)cc2)cs1` (stereo not drawn) [Example 9]: the EC50 (in general, the concentration giving half of the maximal effect) with HSV-1 strain F or KOS (setting [3]) is 950 nM; in the experiment on HCMV (strain AD169) [1] (setting [4]), 6000 nM; in the experiment on HCMV (strain AD169) [2] (setting [4]) it was greater than 10400 nM.
In the same order, the values of `Nc1nc(-c2ccc(NC(=O)CCN(C(=O)c3cccnc3)C3CCc4ccccc43)cc2)cs1` (stereo not drawn) [Example 11] are 4000 nM, 15000 nM and 20000 nM.
In the case of `Nc1nc(-c2ccc(NC(=O)[C@H]3CCC(=O)N3Cc3ccccc3)cc2)cs1` [Example 1], the EC50 in the experiment with HSV-1 strain F or KOS (setting [5]) came out at 3400 nM; with HCMV (strain AD169) [1] (setting [6]) it was 250 nM; with HCMV (strain AD169) [2] (setting [6]) it was 80000 nM.
In the case of `CN(C(=O)C1CCCCC1)[C@@H](Cc1ccccc1)C(=O)Nc1ccc(-c2csc(N)n2)cc1` [Example 5], the figures for the EC50 in the experiment on HSV-1 strain F or KOS (setting [7]) and in the experiment with HCMV (strain AD169) [1] (setting [8]) were 150 nM and 9500 nM, respectively. Also, 220 nM corresponded to half-maximal inhibition at HSV-1 helicase-primase (Group 1 Table 5 entries) (IC50).
In the case of `CC(C)(C)OC(=O)N(CCc1ccccn1)CC(=O)Nc1ccc(-c2csc(N)n2)cc1` [Example 101], the concentration for a half-maximal effect (EC50) in the experiment on HSV-1 strain F or KOS (setting [9]) was 740 nM; with HCMV (strain AD169) [1] (setting [10]), 1900 nM. Besides, at HSV-1 helicase-primase (Group 1 Table 1 entries), half-maximal inhibition (IC50) required 2200 nM.
Turning to `Nc1nc(-c2ccc(NC(=O)NN3CCCCC3)cc2)cs1` [Example 27], the EC50 with HSV-1 strain F or KOS (Human alphaherpesvirus 1, BHK-21, Group 2 Table 1 entries) amounted to 15700 nM; with HCMV (strain AD169) [1] (Human betaherpesvirus 5, AD169, Hs68, Group 2 Table 1 entries), 15400 nM. 50000 nM corresponded to half-maximal inhibition against HSV-1 helicase-primase (Group 2 Table 1 entries) (IC50).
As to `Nc1nc(-c2ccc(NC(=O)CN(CCC3CCCCC3)C(=O)C3CCCCC3)cc2)cs1` [Example 103], the values for the EC50 in the experiment on HSV-1 strain F or KOS (setting [9]) and in the experiment with HCMV (strain AD169) [1] (setting [10]) were 240 nM and greater than 41000 nM, respectively. Besides, the IC50 – broadly, the point on the concentration scale where inhibition reaches its midpoint – against HSV-1 helicase-primase (Group 1 Table 1 entries) is 150 nM.
In the same order, the values of `CCCC(CCC)N(CC(=O)Nc1ccc(-c2csc(N)n2)cc1)C(=O)OCc1ccccc1` [Example 141] are 3500 nM, greater than 121000 nM and 4000 nM.
On the same counts, the results for `Nc1nc(-c2ccc(NC(=O)CN(Cc3ccncc3)C(=O)c3ccc(F)cc3)cc2)cs1` [Example 73] are 17 nM, 12600 nM and 88 nM.
For the compound `Nc1nc(-c2ccc(NC(=O)[C@@H](Cc3ccccc3)NCc3ccccc3)cc2)cs1` [Example 7], the EC50 with HSV-1 strain F or KOS (setting [7]) was 2100 nM; with HCMV (strain AD169) [1] (setting [8]), less than 9000 nM. Moreover, the IC50 against HSV-1 helicase-primase (Group 1 Table 5 entries) came out at 6600 nM.
With `Nc1nc(-c2ccc(NC(=O)CN(Cc3ccccc3)S(=O)(=O)NCc3ccccc3)cc2)cs1` [Example 143], the figures for the EC50 with HSV-1 strain F or KOS (setting [9]) and in the experiment with HCMV (strain AD169) [1] (setting [10]) were 1000 nM and greater than 64000 nM, respectively. At HSV-1 helicase-primase (Group 1 Table 1 entries), the IC50 stood at 800 nM.
As to `CC(C)(C)OC(=O)N1CCC[C@H]1C(=O)Nc1ccc(-c2csc(N)n2)cc1` [Example 4], the concentration for a half-maximal effect (EC50) was 210 nM in the experiment with HSV-1 strain F or KOS (setting [5]) and greater than 64000 nM with HCMV (strain AD169) [1] (setting [6]). On HSV-1 helicase-primase (Group 1 Table 6 entries), this compound showed an IC50 of 460 nM.
For the compound `CNc1nc(-c2ccc(NC(=O)CN(Cc3ccccc3)C(=O)C3CCCCC3)cc2)cs1` [Example 8], the EC50 in the experiment with HSV-1 strain F or KOS (Human alphaherpesvirus 1, BHK-21, Group 1 Table 3 entries) was determined as 2 nM; in the experiment on HCMV (strain AD169) [1] (Human betaherpesvirus 5, AD169, Hs68, Group 1 Table 3 entries), 9000 nM. At HSV-1 helicase-primase (Group 1 Table 3 entries), this compound came in with an IC50 of 50 nM.
